Measurements as given in patent US8796466B2, “Hepatitis C virus inhibitors” (Bristol-Myers Squibb Company, priority 2009, dated 2014).

tested on: HCV 1b genotype; test: HCV Replicon assay (HCV 1b genotype); assay type: cell-based, Hepatitis C virus; details: Hepatitis C virus; HCV 1b genotype replicon; Effective 50% inhibitory concentration; read-out: 1b EC50
Method: An HCV Replicon assay was utilized in the present disclosure, and was prepared, conducted and validated as described in commonly owned PCT/US2006/022197 and in O'Boyle et. al. Antimicrob Agents Chemother. 2005 April; 49(4):1346-53. Assay methods incorporating luciferase reporters have also been used as described (Apath.com).
HCV-neo replicon cells and replicon cells containing mutations in the NS5A region were used to test the currently described family of compounds. The compounds were determined to have more than 10-fold less inhibitory activity on cells containing mutations than wild-type cells. Thus, the compounds of the present disclosure can be effective in inhibiting the function of the HCV NS5A protein and are understood to be as effective in combinations as previously described in application PCT/US2006/022197 and commonly owned WO/04014852. Further, the compounds of the present disclosure can be effective against the HCV 1b genotype. It should also be understood that the compounds of the present disclosure can inhibit multiple genotypes of HCV. […] In one embodiment, compounds of the present disclosure are inhibitory versus 1a, 1b, 2a, 2b, 3a, 4a, and 5a genotypes.

| Compound | EC50 [nM] |
| --- | --- |
| O=C([C@H](O)c1ccccc1)N1CCC[C@H]1c1nc(-c2ccc(COCc3ccc(-c4cnc([C@@H]5CCCN5C(=O)[C@H](O)c5ccccc5)[nH]4)cc3)cc2)c[nH]1 [OL-15, (1R)-2-((2S)-2-(4-(4-(((4-(2-((2S)-1-((2R)-2-hydroxy-2-phenylacetyl)-2-pyrrolidinyl)-1H-imidazol-5-yl)benzyl)oxy)methyl)phenyl)-1H-imidazol-2-yl)-1-pyrrolidinyl)-2-oxo-1-phenylethanol] | 1.1 |
| COC(=O)N[C@H](C(=O)N1C[C@@H](C)C[C@H]1c1ncc(-c2ccc(C#Cc3ccc(-c4cnc([C@@H]5C[C@H](C)CN5C(=O)[C@@H](NC(=O)OC)C5CCOCC5)[nH]4)cc3)cc2)[nH]1)C1CCOCC1 [Example M12.3, dimethyl (1,2-ethynediylbis(4,1-phenylene-1H-imidazole-4,2-diyl((2S,4S)-4-methyl-2,1-pyrrolidinediyl)((1S)-2-oxo-1-(tetrahydro-2H-pyran-4-yl)-2,1-ethanediyl)))biscarbamate] | 0.014 |
| COC(=O)N[C@H](C(=O)N1CCC[C@H]1c1nc(-c2cccc(C#Cc3cccc(-c4c[nH]c([C@@H]5CCCN5)n4)c3)c2)c[nH]1)C(C)C [Example J1.1, methyl ((1S)-2-methyl-1-(((2S)-2-(4-(3-((3-(2-((2S)-2-pyrrolidinyl)-1H-imidazol-4-yl)phenyl)ethynyl)phenyl)-1H-imidazol-2-yl)-1-pyrrolidinyl)carbonyl)propyl)carbamate] | 339 |

same assay, conditions: Hepatitis C virus; HCV 1b genotype replicon; class symbol; read-out: Range (EC50 values against HCV 1b)

| Compound | EC50 [nM] |
| --- | --- |
| COC(=O)N[C@H](C(=O)N1[C@@H]2C[C@@H]2C[C@H]1c1nc2ccc3cc(C#Cc4ccc5c(ccc6nc([C@@H]7C[C@H]8C[C@H]8N7C(=O)[C@@H](NC(=O)OC)C7CCOCC7)[nH]c65)c4)ccc3c2[nH]1)C(C)C [Example D-11, methyl ((1S)-2-((1R,3S,5R)-3-(7-((2-((1R,3S,5R)-2-((2S)-2-((methoxycarbonyl)amino)-3-methylbutanoyl)-2-azabicyclo[3.1.0]hex-3-yl)-1H-naphtho[1,2-d]imidazol-7-yl)ethynyl)-1H-naphtho[1,2-d]imidazol-2-yl)-2-azabicyclo[3.1.0]hex-2-yl)-2-oxo-1-(tetrahydro-2H-pyran-4-yl)ethyl)carbamate] | 0.002 to 0.099 |
| COC(=O)N[C@H](C(=O)N1[C@@H](C)CC[C@H]1c1ncc(-c2ccc(C#Cc3ccc(-c4cnc([C@@H]5CC[C@H](C)N5C(=O)[C@@H](NC(=O)OC)C5CCOCC5)[nH]4)cc3)cc2)[nH]1)C(C)C [Example M12.1, methyl ((1S)-1-(((2S,5S)-2-(4-(4-((4-(2-((2S,5S)-1-((2S)-2-((methoxycarbonyl)amino)-2-(tetrahydro-2H-pyran-4-yl)acetyl)-5-methyl-2-pyrrolidinyl)-1H-imidazol-4-yl)phenyl)ethynyl)phenyl)-1H-imidazol-2-yl)-5-methyl-1-pyrrolidinyl)carbonyl)-2-methylpropyl)carbamate] | 0.002 to 0.099 |
| COC(=O)N[C@H](C(=O)N1CC(F)(F)C[C@H]1c1nc(-c2ccc(C#Cc3ccc(-c4c[nH]c([C@@H]5CC(F)(F)CN5C(=O)[C@@H](NC(=O)OC)C(C)C)n4)cc3)cc2)c[nH]1)C(C)C [Example N1, methyl ((1S)-1-(((2S)-2-(4-(4-((4-(2-((2S)-4,4-difluoro-1-((2S)-2-((methoxycarbonyl)amino)-3-methylbutanoyl)-2-pyrrolidinyl)-1H-imidazol-4-yl)phenyl)ethynyl)phenyl)-1H-imidazol-2-yl)-4,4-difluoro-1-pyrrolidinyl)carbonyl)-2-methylpropyl)carbamate] | 0.002 to 0.099 |
| CC[C@H](NC(=O)OC)C(=O)N1[C@@H]2C[C@@H]2C[C@H]1c1nc(-c2ccc(C#Cc3ccc(-c4c[nH]c([C@@H]5C[C@H]6C[C@H]6N5C(=O)[C@H](CC)NC(=O)OC)n4)cc3)cc2)c[nH]1 [Example M4, dimethyl (1,2-ethynediylbis(4,1-phenylene-1H-imidazole-4,2-diyl(1R,3S,5R)-2-azabicyclo[3.1.0]hexane-3,2-diyl((2S)-1-oxo-1,2-butanediyl)))biscarbamate] | 0.002 to 0.099 |
| O=C(NC1CCCC1)N[C@@H](C(=O)N1CCC[C@H]1c1nc(-c2ccc(COCc3cccc(-c4c[nH]c([C@@H]5CCCN5C(=O)[C@H](NC(=O)NC5CCCC5)c5ccccc5)n4)c3)cc2)c[nH]1)c1ccccc1 [OL-25, 1-cyclopentyl-3-((1R)-2-((2S)-2-(4-(3-(((4-(2-((2S)-1-((2R)-2-((cyclopentylcarbamoyl)amino)-2-phenylacetyl)-2-pyrrolidinyl)-1H-imidazol-4-yl)benzyl)oxy)methyl)phenyl)-1H-imidazol-2-yl)-1-pyrrolidinyl)-2-oxo-1-phenylethyl)urea] | 0.002 to 0.099 |
| O=C([C@H](O)c1ccccc1)N1CCC[C@H]1c1nc(-c2ccc(COCc3ccc(-c4cnc([C@@H]5CCCN5C(=O)[C@H](O)c5ccccc5)[nH]4)cc3)cc2)c[nH]1 [OL-15, (1R)-2-((2S)-2-(4-(4-(((4-(2-((2S)-1-((2R)-2-hydroxy-2-phenylacetyl)-2-pyrrolidinyl)-1H-imidazol-5-yl)benzyl)oxy)methyl)phenyl)-1H-imidazol-2-yl)-1-pyrrolidinyl)-2-oxo-1-phenylethanol] | 1 to 9.9 |
| CC[C@H](NC(=O)OC)C(=O)N1[C@@H](C)CC[C@H]1c1nc(-c2ccc(C#Cc3ccc(-c4c[nH]c([C@@H]5CC[C@H](C)N5C(=O)[C@H](CC)NC(=O)OC)n4)cc3)cc2)c[nH]1 [Example M11, dimethyl (1,2-ethynediylbis(4,1-phenylene-1H-imidazole-4,2-diyl((2S,5S)-5-methyl-2,1-pyrrolidinediyl)((2S)-1-oxo-1,2-butanediyl)))biscarbamate] | 0.002 to 0.099 |
| COC(=O)N[C@H](C(=O)N1[C@@H]2C[C@@H]2C[C@H]1c1ncc(-c2ccc([C@H]3C[C@@H]3c3ccc(-c4cnc([C@@H]5C[C@H]6C[C@H]6N5C(=O)[C@@H](NC(=O)OC)C5CCOCC5)[nH]4)cc3)cc2)[nH]1)C1CCOCC1 [Example M9.4, dimethyl ((1S,2S)-1,2-cyclopropanediylbis(4,1-phenylene-1H-imidazole-4,2-diyl(1R,3S,5R)-2-azabicyclo[3.1.0]hexane-3,2-diyl((1S)-2-oxo-1-(tetrahydro-2H-pyran-4-yl)-2,1-ethanediyl)))biscarbamate] | 0.002 to 0.099 |
| COC(=O)N[C@@H](C(=O)N1CCC[C@H]1c1nc(-c2ccc(CCc3ccc(-c4c[nH]c([C@@H]5CCCN5C(=O)[C@H](NC(=O)OC)c5ccccc5)n4)cc3)cc2)c[nH]1)c1ccccc1 [OL-11, dimethyl (1,2-ethanediylbis(4,1-phenylene-1H-imidazole-4,2-diyl(2S)-2,1-pyrrolidinediyl((1R)-2-oxo-1-phenyl-2,1-ethanediyl)))biscarbamate] | 0.002 to 0.099 |
| COC(=O)N[C@H](C(=O)N1C[C@@H](C)C[C@H]1c1ncc(-c2ccc(C#Cc3ccc(-c4cnc([C@@H]5C[C@H](C)CN5C(=O)[C@@H](NC(=O)OC)C5CCOCC5)[nH]4)cc3)cc2)[nH]1)C1CCOCC1 [Example M12.3, dimethyl (1,2-ethynediylbis(4,1-phenylene-1H-imidazole-4,2-diyl((2S,4S)-4-methyl-2,1-pyrrolidinediyl)((1S)-2-oxo-1-(tetrahydro-2H-pyran-4-yl)-2,1-ethanediyl)))biscarbamate] | 0.002 to 0.099 |
| COC(=O)N[C@H](C(=O)N1[C@@H]2C[C@@H]2C[C@H]1c1ncc(-c2ccc([C@H]3C[C@@H]3c3ccc(-c4cnc([C@@H]5C[C@H]6C[C@H]6N5C(=O)[C@@H](NC(=O)OC)C(C)C)[nH]4)cc3)cc2)[nH]1)C(C)C [Example M9.3] | 0.002 to 0.099 |
| COC(=O)N[C@H](C(=O)N1CCC[C@H]1c1nc(-c2cccc(C#Cc3cccc(-c4c[nH]c([C@@H]5CCCN5)n4)c3)c2)c[nH]1)C(C)C [Example J1.1, methyl ((1S)-2-methyl-1-(((2S)-2-(4-(3-((3-(2-((2S)-2-pyrrolidinyl)-1H-imidazol-4-yl)phenyl)ethynyl)phenyl)-1H-imidazol-2-yl)-1-pyrrolidinyl)carbonyl)propyl)carbamate] | 10 to 350 |
| COC(=O)N[C@H](C(=O)N1[C@@H]2C[C@@H]2C[C@H]1c1nc(Cl)c(-c2ccc(C#Cc3ccc(-c4[nH]c([C@@H]5C[C@H]6C[C@H]6N5C(=O)[C@@H](NC(=O)OC)C5CCOCC5)nc4Cl)cc3)cc2)[nH]1)C1CCOCC1 [Example M9.2, dimethyl (1,2-ethynediylbis(4,1-phenylene(4-chloro-1H-imidazole-5,2-diyl)(1R,3S,5R)-2-azabicyclo[3.1.0]hexane-3,2-diyl((1S)-2-oxo-1-(tetrahydro-2H-pyran-4-yl)-2,1-ethanediyl)))biscarbamate] | 0.002 to 0.099 |
| COC(=O)N[C@@H](C(=O)N1CCC[C@H]1c1nc(-c2ccc(Oc3cccc(-c4c[nH]c([C@@H]5CCCN5C(=O)[C@H](NC(=O)OC)c5ccccc5)n4)c3)cc2)c[nH]1)c1ccccc1 [OL-6, methyl ((1R)-2-((2S)-2-(4-(3-(4-(2-((2S)-1-((2R)-2-((methoxycarbonyl)amino)-2-phenylacetyl)-2-pyrrolidinyl)-1H-imidazol-4-yl)phenoxy)phenyl)-1H-imidazol-2-yl)-1-pyrrolidinyl)-2-oxo-1-phenylethyl)carbamate] | 0.002 to 0.099 |
| COC(=O)N[C@H](C(=O)N1[C@@H](C)CC[C@H]1c1nc(-c2ccc(C#Cc3ccc(-c4c[nH]c([C@@H]5CC[C@H](C)N5C(=O)[C@@H](NC(=O)OC)C5CCOCC5)n4)cc3)cc2)c[nH]1)C1CCOCC1 [Example M12, dimethyl (1,2-ethynediylbis(4,1-phenylene-1H-imidazole-4,2-diyl((2S,5S)-5-methyl-2,1-pyrrolidinediyl)((1S)-2-oxo-1-(tetrahydro-2H-pyran-4-yl)-2,1-ethanediyl)))biscarbamate] | 0.002 to 0.099 |
| CCNC(=O)N[C@@H](C(=O)N1CCC[C@H]1c1nc(-c2ccc(CCc3ccc(-c4c[nH]c([C@@H]5CCCN5C(=O)[C@H](NC(=O)NCC)c5ccccc5)n4)cc3)cc2)c[nH]1)c1ccccc1 [OL-12, N′,N′″-(1,2-ethanediylbis(4,1-phenylene-1H-imidazole-4,2-diyl(2S)-2,1-pyrrolidinediyl((1R)-2-oxo-1-phenyl-2,1-ethanediyl)))bis(1-ethylurea)] | 0.002 to 0.099 |
| COC(=O)N[C@H](C(=O)N1C[C@@H](C)C[C@H]1c1nc(-c2ccc(C#Cc3ccc(-c4[nH]c([C@@H]5C[C@H](C)CN5C(=O)[C@@H](NC(=O)OC)C(C)C)nc4Cl)cc3)cc2)c[nH]1)C(C)C [Example M12.4, methyl ((1S)-1-(((2S,4S)-2-(4-(4-((4-(4-chloro-2-((2S,4S)-1-((2S)-2-((methoxycarbonyl)amino)-3-methylbutanoyl)-4-methyl-2-pyrrolidinyl)-1H-imidazol-5-yl)phenyl)ethynyl)phenyl)-1H-imidazol-2-yl)-4-methyl-1-pyrrolidinyl)carbonyl)-2-methylpropyl)carbamate] | 0.002 to 0.099 |
